Columns and labels:
K562 cells = assay: Cell proliferation analysis, K562; assay type: cell-based; conditions: Homo sapiens, K562, 72 h; 3 days, CellTiter-Glo
Protocol: (§1) The inhibitory effect of the example compounds on Ba/F3 parental, Ba/F3 Bcr-Abl^T315I, K562, Ba/F3 KIF5B-RET, BaF3 FLT3-ITD cell activity was determined.
(§2) Materials and reagents: RPMI-1640 medium (GIBCO, Catalog No. A10491-01), fetal bovine serum (GIBCO, Catalog No. 10099141), antibiotics (Penicillin-Streptomycin), IL-3(PeproTech), promycin; cell lines: Ba/F3 parental, Ba/F3 Bcr-Abl^T315I, Ba/F3 KIF5B-RET, BaF3 FLT3-ITD, (purchased from American type culture collection, ATCC), K562 live cell detection kit CellTiter-Glo4(Promega, Catalog No. G7572), 96-well black wall transparent flat bottom cell culture plate (Corning, Catalog No. 3340).
(§3) Test method: 1. Preparation of cell plate: Ba/F3 parental, Ba/F3 Bcr-Abl^T315I K563, Ba/F3 KIFSB-RET, BaF3 FLT3-ITD cells were respectively seeded in 96-well plates, and 8 ng/ml IL-3 was added to the Ba/F3 cells, and the cell plates were placed in a carbon dioxide incubator and cultured overnight. 2. The test compounds were dissolved in DMSO, 9 compound concentrations were made with a 3.16-fold gradient dilution in triplicate. 3. Treatment of the cells with compounds: The compounds were transferred to the cell plate with a starting concentration of 10 μM. The cell plate was placed in a carbon dioxide incubator for 3 days. 4. Detection: CellTiter-Glo agent was added to the cell plate, and incubated at room temperature for 30 minutes to stabilize the luminous signal. PerkinElmer Envision multi-label analyzer was used for reading, wherein A represents IC50≤50 nM, B represents IC50 is 50-100 nM, C represents IC50 is 100-500 nM, D represents IC50 is 500-1000 nM, […].

Ba/F3 parental cells = assay: Cell proliferation analysis, Ba/F3 parental; assay type: cell-based; conditions: Mus musculus, BaF3, 72 h; 3 days, CellTiter-Glo, 8 ng/ml IL-3
Protocol: as §1, §2, §3

Ret = Ret (Homo sapiens (Human), UniProt P07949); assay: Biochemical kinase analysis, Ret; conditions: kinase inhibition assay
Sequence of Ret (P07949 29-1114): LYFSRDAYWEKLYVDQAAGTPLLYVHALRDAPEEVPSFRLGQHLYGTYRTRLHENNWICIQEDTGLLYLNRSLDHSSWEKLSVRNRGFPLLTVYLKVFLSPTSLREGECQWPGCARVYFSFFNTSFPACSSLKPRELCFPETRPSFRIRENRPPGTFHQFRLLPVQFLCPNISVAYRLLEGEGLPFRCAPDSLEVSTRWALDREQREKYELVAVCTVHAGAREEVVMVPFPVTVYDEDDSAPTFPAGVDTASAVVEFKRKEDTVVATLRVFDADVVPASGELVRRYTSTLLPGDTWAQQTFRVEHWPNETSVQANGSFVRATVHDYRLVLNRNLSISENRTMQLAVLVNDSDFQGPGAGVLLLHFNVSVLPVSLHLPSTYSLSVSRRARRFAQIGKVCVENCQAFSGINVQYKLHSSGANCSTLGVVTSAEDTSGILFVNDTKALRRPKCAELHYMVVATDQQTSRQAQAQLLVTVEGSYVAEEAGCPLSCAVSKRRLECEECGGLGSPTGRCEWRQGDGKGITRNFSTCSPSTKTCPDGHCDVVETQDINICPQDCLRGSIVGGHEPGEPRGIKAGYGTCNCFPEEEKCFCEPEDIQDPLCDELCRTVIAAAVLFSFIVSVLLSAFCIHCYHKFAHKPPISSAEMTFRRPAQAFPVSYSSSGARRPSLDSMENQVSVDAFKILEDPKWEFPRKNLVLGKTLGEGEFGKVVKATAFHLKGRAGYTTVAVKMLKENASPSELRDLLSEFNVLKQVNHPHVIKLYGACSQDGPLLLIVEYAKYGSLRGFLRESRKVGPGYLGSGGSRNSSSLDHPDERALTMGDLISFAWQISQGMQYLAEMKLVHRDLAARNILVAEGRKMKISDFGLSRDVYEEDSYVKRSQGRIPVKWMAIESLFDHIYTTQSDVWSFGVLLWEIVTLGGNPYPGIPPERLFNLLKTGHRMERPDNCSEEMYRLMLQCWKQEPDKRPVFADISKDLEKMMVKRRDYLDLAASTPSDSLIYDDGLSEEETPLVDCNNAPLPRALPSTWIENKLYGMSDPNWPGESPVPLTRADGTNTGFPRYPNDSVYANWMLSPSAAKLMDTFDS
Protocol: (§4) Reagents and materials: ABL (ThermoFisher, Cat. No. PV3585), ABL^T315I(Thermo Fisher, Cat. No. PR7429B), Ret (Carna, Cat. No. 08-159-10 ug), RET^V804M, Active (Signalchem, Cat. No. R02-12GG), ATP (Sigma, Cat. No. A7699-1G), DMSO (Sigma, Cat. No. D2650), 96-well plate (Corning, Cat. No. 3365), 384-well plate (Greiner, Cat. No. 784076), buffer solution (Thermo Fisher, Cat. No. PR4876B).
(§5) Compound formulation: The test compounds were dissolved in DMSO to prepare a 20 mM stock solution. Before use, the compounds were diluted in DMSO to 0.1 mM, and diluted into 11 concentrations with a 3-fold gradient. When addition, dilutions of 4-fold final concentration were then made with buffer solution.
(§6) Kinase assay method: After preparing the buffer, the enzyme was mixed with pre-formulated and diluted compounds of different concentrations in duplicate for each concentration, and placed at room temperature for 30 minutes. The corresponding substrate and ATP were added thereto, and reacted at room temperature for 60 minutes (both a negative and a positive control were set). After the reaction, antibody was added for detection, Evnvision detection was carried out after 60 minutes incubation at room temperature, and data was collected. Data analysis and fitting were made according to XLfit5 software.

Ba/F3 BCR-ABL cells = assay: Cell proliferation analysis, Ba/F3 BCR-ABL; assay type: cell-based; conditions: Mus musculus, BaF3, 72 h; 3 days, CellTiter-Glo
Protocol: [Worded in the source for another variant; this variant is reported under the same test.] as §1, §2, §3

ABL = ABL (Homo sapiens (Human), UniProt P00519); assay: Biochemical kinase analysis, ABL; conditions: kinase inhibition assay
Protocol: as §4, §5, §6

[1] = tested on: Ba/F3 Bcr-Abl^T315I cells; assay: Cell proliferation analysis, Ba/F3 Bcr-Abl T315I; assay type: cell-based; conditions: Mus musculus, BaF3, 72 h; 3 days, CellTiter-Glo; read-out: IC50 (nM) Ba/F3 BCR-ABL^T315
Protocol: as §1, §2, §3

BaF3 FLT3-ITD cells = assay: Cell proliferation analysis, BaF3 FLT3-ITD; assay type: cell-based; conditions: Ba/F3 FLT3-ITD, 72 h; 3 days, CellTiter-Glo
Protocol: as §1, §2, §3

ABL^T315I = ABL^T315I (Homo sapiens (Human), UniProt P00519, T315I); assay: Biochemical kinase analysis, ABL T315I; conditions: kinase inhibition assay
Protocol: as §4, §5, §6

Ba/F3 KIF5B-RET cells = assay: Cell proliferation analysis, Ba/F3 KIF5B-RET; assay type: cell-based; conditions: Mus musculus, BaF3, 72 h; 3 days, CellTiter-Glo
Protocol: as §1, §2, §3

RET^V804M = RET^V804M (Homo sapiens (Human), UniProt P07949, V804M); assay: Biochemical kinase analysis, RET V804M; conditions: kinase inhibition assay
Sequence of RET^V804M (P07949 29-1114 V804M): as the sequence (P07949 29-1114) above, with V776M counted along it
Protocol: as §4, §5, §6

| IC50 (K562 cells) [nM] | IC50 (Ret) [nM] | IC50 (Ba/F3 BCR-ABL cells) [nM] | IC50 (ABL) [nM] | IC50 [1] [nM] | IC50 (BaF3 FLT3-ITD cells) [nM] | IC50 (ABL^T315I) [nM] | IC50 (Ba/F3 KIF5B-RET cells) [nM] | IC50 (RET^V804M) [nM] | SMILES | IC50 (Ba/F3 parental cells) [nM] |
| --- | --- | --- | --- | --- | --- | --- | --- | --- | --- | --- |
| 0.97 | 0.49 | 9.02 | 4.91 | 24.9 | 23 | 12.6 | 15.8 | 9.92 | Cc1ccc(C(=O)Nc2cccc(C(F)(F)F)c2)cc1C#Cc1cnc2c(Nc3cnn(C)c3)ccnn12 [Example 14, 4-methyl-3-((8-((1-methyl-1H-pyrazol-4-yl)amino)imidazo[1,2-b]pyridazin-3-yl)ethynyl)-N-(3-(trifluoromethyl)phenyl)benzamide] | 1550 |
| 12.1 |  |  |  |  |  |  |  |  | Cc1ccc(NC(=O)Nc2ccc(Cl)c(C(F)(F)F)c2)cc1C#Cc1cnc2c(Nc3cnn(C)c3)ccnn12 [Example 16, 1-(4-chloro-3-(trifluoromethyl)phenyl)-3-(4-methyl-3-((8-((1-methyl-1H-pyrazol-4-yl)amino)imidazo[1,2-b]pyridazin-3-yl)ethynyl)phenyl)urea] | 1370 |
| 0.5 | 0.32 | 5.1 | 6.65 | 17 | 10 | 10.1 | 6.02 | 2.69 | Cc1ccc(C(=O)Nc2cccc(C(F)(F)F)c2)cc1C#Cc1cnc2c(Nc3cnn(C)c3)nccn12 [Example 2, 4-methyl-3-((8-((1-methyl-1H-pyrazol-4-yl)amino)imidazo[1,2-a]pyrazin-3-yl)ethynyl)-N-(3-(trifluoromethyl)phenyl)benzamide] | 945 |
| 4.53 |  |  |  | 291 |  |  |  |  | Cc1ccc(NC(=O)Nc2ccc(Cl)c(C(F)(F)F)c2)cc1C#Cc1cnc2c(Nc3cnn(C)c3)nccn12 [Example 7, 1-(4-chloro-3-(trifluoromethyl)phenyl)-3-(4-methyl-3-((8-((1-methyl-1H-pyrazol-4-yl)amino)imidazo[1,2-a]pyrazin-3-yl)ethynyl)phenyl)urea] | 620 |
| 1.27 |  | 17.3 | 2.7 | 56.1 |  |  |  |  | COCCn1cc(Nc2nccn3c(C#Cc4cc(NC(=O)c5cc(C(C)(C)C)on5)ccc4C)cnc23)cn1 [Example 10, 5-(tert-butyl)-N-(3-((8-((1-(2-methoxyethyl)-1H-pyrazol-4-yl)amino)imidazo[1,2-a]pyrazin-3-yl)ethynyl)-4-methylphenyl)isoxazole-3-carboxamide] | 2680 |
| 0.32 |  | 2.75 | 0.93 |  |  | 19.9 |  |  | COCCn1cc(Nc2nccn3c(C#Cc4cc(NC(=O)c5ccnc(C(F)(F)F)c5)ccc4C)cnc23)cn1 [Example 9, N-(3-((8-((1-(2-methoxyethyl)-1H-pyrazol-4-yl)amino)imidazo[1,2-a]pyrazin-3-yl)ethynyl)-4-methylphenyl)-2-(trifluoromethyl)isonicotinamide] | 4280 |
| 0.28 | 0.88 | 5.63 | 3.91 | 15 | 17.7 | 9.05 | 10.1 | 12.2 | Cc1ccc(NC(=O)c2cccc(C(F)(F)F)c2)cc1C#Cc1cnc2c(Nc3cnn(C)c3)nccn12 [Example 1, N-(4-methyl-3-((8-((1-methyl-1H-pyrazol-4-yl)amino)imidazo[1,2-a]pyrazin-3-yl)ethynyl)phenyl)-3-(trifluoromethyl)benzamide] | 838 |
| 0.96 |  | 6.29 | 2.55 | 35.8 |  | 6.47 |  |  | COCCn1cc(Nc2nccn3c(C#Cc4cc(NC(=O)c5cccc(C(F)(F)F)c5)ccc4C)cnc23)cn1 [Example 8, N-(3-((8-((1-(2-methoxyethyl)-1H-pyrazol-4-yl)amino)imidazo[1,2-a]pyrazin-3-yl)ethynyl)-4-methylphenyl)-3-(trifluoromethyl)benzamide] | 927 |
| 0.26 |  | 4.76 | 4.18 | 144 |  | 57.2 |  |  | Cc1ccc(NC(=O)c2cccc(C(F)(F)F)c2)cc1C#Cc1cnc2c(Nc3cnn(C)c3)ccnn12 [Example 11, N-(4-methyl-3-((8-((1-methyl-1H-pyrazol-4-yl)amino)imidazo[1,2-b]pyridazin-3-yl)ethynyl)phenyl)-3-(trifluoromethyl)benzamide] | 770 |
| 0.27 |  | 7.75 | 2.24 |  |  |  |  |  | Cc1ccc(NC(=O)c2ccnc(C(F)(F)F)c2)cc1C#Cc1cnc2c(Nc3cnn(C)c3)ccnn12 [Example 12, N-(4-methyl-3-((8-((1-methyl-1H-pyrazol-4-yl)amino)imidazo[1,2-b]pyridazin-3-yl)ethynyl)phenyl)-2-(trifluoromethyl)isonicotinamide] | 1890 |
| 1.3 |  | 15.6 | 9.88 | 162 |  | 67.2 |  |  | Cc1ccc(NC(=O)c2ccc(C)c(C(F)(F)F)c2)cc1C#Cc1cnc2c(Nc3cnn(C)c3)ccnn12 [Example 13, 4-methyl-N-(4-methyl-3-((8-((1-methyl-1H-pyrazol-4-yl)amino)imidazo[1,2-b]pyridazin-3-yl)ethynyl)phenyl)-3-(trifluoromethyl)benzamide] | 1220 |
| 1.32 |  | 10.6 | 3.33 | 88 |  | 3.44 |  |  | Cc1ccc(NC(=O)c2ccc(CN3CCN(C)CC3)c(C(F)(F)F)c2)cc1C#Cc1cnc2c(Nc3cnn(C)c3)nccn12 [Example 5, N-(4-methyl-3-((8-((1-methyl-1H-pyrazol-4-yl)amino)imidazo[1,2-a]pyrazin-3-yl)ethynyl)phenyl)-4-((4-methylpiperazin-1-yl)methyl)-3-(trifluoromethyl)benzamide] | 340 |
| 6.56 |  | 9.61 | 1.6 |  |  | 65 |  |  | Cc1ccc(NC(=O)c2cc(C(C)(C)C)on2)cc1C#Cc1cnc2c(Nc3cnn(C)c3)nccn12 [Example 6, 5-(tert-butyl)-N-(4-methyl-3-((8-((1-methyl-1H-pyrazol-4-yl)amino)imidazo[1,2-a]pyrazin-3-yl)ethynyl)phenyl)isoxazole-3-carboxamide] | 5230 |
| 3.8 |  | 19.7 | 4.93 | 50.2 |  | 7.69 |  |  | Cc1cn(-c2cc(C(=O)Nc3ccc(C)c(C#Cc4cnc5c(Nc6cnn(C)c6)nccn45)c3)cc(C(F)(F)F)c2)cn1 [Example 4, 3-(4-methyl-1H-imidazol-1-yl)-N-(4-methyl-3-((8-((1-methyl-1H-pyrazol-4-yl)amino)imidazo[1,2-a]pyrazin-3-yl)ethynyl)phenyl)-5-(trifluoromethyl)benzamide] | 314 |
